Data reported in patent US20230165242A1, “RODENTICIDAL BAIT AND METHOD OF CONTROLLING TARGET HARMFUL RODENTS” (priority 2020, published 2023).

Columns and labels:
[1] = in vivo; cited from earlier work
[2] = tested on: warfarin-sensitive male OFA-Sprague-Dawley rats; assay: Prothrombin level, Quick's time (bromadiolone / cholecalciferol gavage); assay type: in vivo, rat
Excerpt: Warfarin-sensitive male OFA-Sprague-Dawley rats (Charles River, L′Arbresles, France) are fed by gavage for 3 consecutive days with a gavage solution containing bromadiolone (LIPHATECH, France) and cholecalciferol (Sigma-Aldrich, France) in a solvent consisting of 95% (v/v) of oil and 5% (v/v) of DMSO. During this period of gavage, the rats are fed with a conventional solid feed and water in unlimited amounts. The concentrations of bromadiolone and cholecalciferol in the gavage solution are 0.1 g/kg (100 ppm) and 7.5 g/kg (7500 ppm) respectively. Each rat receives daily a volume of gavage solution calculated to correspond to 1 mL of gavage solution per kilogram of body weight. The OFA-Sprague-Dawley rats in two control groups are fed by gavage in the same conditions with gavage solutions containing bromadiolone (alone) at a concentration of 100 ppm or cholecalciferol (alone) at a concentration of 7500 ppm, respectively. 24 hours after the last gavage, a volume of blood is taken from each rat by intracardiac puncture and placed in a specimen tube containing sodium citrate. The animals are euthanized after puncture and the plasma is prepared by centrifugation. Quick's time (or clotting time) is evaluated on the plasma supplemented with sodium citrate, then decalcified and recalcified in the presence of calcium thromboplastin. Quick's time is evaluated by means of an optical device for clotting analysis (Option 2plus, Bio Mèrieux®). The results are presented [FIG. 2]. The average Quick's time measured on the plasma from the rats fed by gavage with bromadiolone (bar “B”) is 12.4 seconds (±1.8), the average Quick's time measured on the plasma from the rats fed by gavage with cholecalciferol (bar “C”) is 12.4 seconds (±0.9) and the average Quick's time measured on the plasma from the rats fed by gavage with the composition comprising bromadiolone and cholecalciferol (bar “D”) is 14.1 seconds (±2.7). The differences in values of Quick's time measured between the three groups of rats are not significant. The rats in the group of rats that received the combination of bromadiolone and cholecalciferol coagulate in the same way as the rats in the group of rats that received the gavage solution containing bromadiolone on the one hand and the rats in the group of rats that received the gavage solution containing cholecalciferol on the other hand. Quick's time for rats treated with a control solution formed from oil (95%, v/v) and DMSO (5%, v/v) is (bar “A”) 12.8 seconds (±2.3). Neither the gavage solution containing bromadiolone in combination with cholecalciferol, nor the gavage solution containing bromadiolone alone, nor the gavage solution containing cholecalciferol induces an increase of Quick's time relative to the control. […]

[3] = tested on: warfarin-sensitive male OFA-Sprague-Dawley rats; assay: Synergy of bromadiolone and cholecalciferol, gavage, survival; assay type: in vivo, rat; settings: gavage 5 consecutive days; bromadiolone 0.1 mg/kg alone, cholecalciferol 7.5 mg/kg alone, or both combined; after 20 days of observation
Excerpt: A group of 10 warfarin-sensitive male OFA-Sprague-Dawley rats (Charles River, L′Arbresles, France), aged 10 weeks and with a body weight between 160 and 180 g, are fed by gavage for 5 consecutive days with a gavage solution containing bromadiolone (LIPHATECH, France) and cholecalciferol (Sigma-Aldrich, France) in a solvent consisting of 95% (v/v) of oil and 5% (v/v) of DMSO. During this period of gavage, the rats are fed with a conventional solid feed and water in unlimited amounts. The rats are fed by gavage with a volume of this gavage solution so as to administer an amount of bromadiolone corresponding to 0.1 mg of bromadiolone per kilogram of body weight of the rat fed by gavage and an amount of cholecalciferol corresponding to 7.5 mg of cholecalciferol per kilogram of body weight of the rat fed by gavage. The rats in two control groups, each consisting of 10 male OFA-Sprague-Dawley rats, are fed by gavage in the same conditions with gavage solutions containing, respectively, bromadiolone alone so as to administer an amount of bromadiolone corresponding to 0.1 mg of bromadiolone per kilogram of body weight of the rat fed by gavage and cholecalciferol alone so as to administer an amount of cholecalciferol corresponding to 7.5 mg of cholecalciferol per kilogram of body weight of the rat fed by gavage. […]

[4] = tested on: male Sprague-Dawley rats that have undergone introgression, homozygotic carriers of the Y139F mutation in the Vkorc1 gene; assay: Dose/rodenticidal response effect of difethialone on warfarin-resistant male Y139F rats; assay type: in vivo, rat; settings: for Mortality, %: gavage, 21 days
Method: A gavage solution containing difethialone (LIPHATECH, France) in a solvent consisting of 95% (v/v) of oil and 5% (v/v) of DMSO is administered once a day for 3 consecutive days to male Sprague-Dawley rats that have undergone introgression, which are homozygotic carriers of the Y139F mutation in the Vkorc1 gene. During this period of gavage, the rats are fed with a conventional solid feed and water in unlimited amounts. The doses of difethialone administered to the Sprague-Dawley rats that have undergone introgression, given in Table 9 hereunder, are expressed in micrograms of difethialone administered per kilogram of body weight of the gavage-fed rodent.
The percentage of rats surviving gavage is noted daily for 21 days counting from the first day of gavage. 100% of the Sprague-Dawley rats that had undergone introgression survive gavage for 3 days with 0.125 mg of difethialone per kilogram of body weight per day.

[5] = tested on: warfarin-sensitive male OFA-Sprague-Dawley rats; assay: Synergy of difethialone and cholecalciferol on warfarin-sensitive rats, gavage, survival; assay type: in vivo, rat; settings: gavage once a day for 3 days; difethialone 125 μg/kg alone or combined with cholecalciferol 7.5 mg/kg; 20 days of observation
Excerpt: A group of warfarin-sensitive male OFA-Sprague-Dawley rats (Charles River, L′Arbresles, France), aged 10 weeks and with a body weight between 160 and 180 g, are fed by gavage once a day for 3 consecutive days with a gavage solution containing difethialone (LIPHATECH, France) and cholecalciferol (Sigma-Aldrich, France) in a solvent consisting of 95% (v/v) of oil and 5% (v/v) of DMSO. During this period of gavage, the rats are fed with a conventional solid feed and water in unlimited amounts. The amounts of difethialone and cholecalciferol administered are 125 μg per kilogram of body weight of the rat fed by gavage and 7.5 mg per kilogram of body weight of the rat fed by gavage, respectively. The rats in two control groups, each consisting of OFA-Sprague-Dawley rats, are fed by gavage in the same conditions with gavage solutions containing difethialone alone (125 μg/kg) or cholecalciferol alone (7.5 mg/kg), respectively. The percentage of rats surviving gavage is recorded daily, for 20 days counting from the first day of gavage. The results presented [FIG. 3] show the variation of the percentage of rodents surviving (in %) as a function of time (t, in days) following the first day of gavage. The rats fed by gavage with the difethialone solution (♦) have 100% survival after 20 days of observation. […]

[6] = tested on: warfarin-sensitive male OFA-Sprague-Dawley rats; assay: Dose/rodenticidal response effect of difethialone on warfarin-sensitive rats; assay type: in vivo, rat; settings: gavage, 21 days
Method: A gavage solution containing difethialone (LIPHATECH, France) in a solvent consisting of 95% (v/v) of oil and 5% (v/v) of DMSO is administered once a day for 3 consecutive days to warfarin-sensitive male OFA-Sprague-Dawley rats (Charles River, L′Arbresles, France), aged 10 weeks and with a body weight between 160 and 180 g. During this period of gavage, the rats are fed with a conventional solid feed and water in unlimited amounts. The doses of difethialone administered to the OFA-Sprague-Dawley rats, given in Table 6 hereunder, are expressed in micrograms of difethialone administered per kilogram of body weight of the gavage-fed rodent.
The percentage of rats surviving gavage is recorded daily for 21 days counting from the first day of gavage.

[7] = tested on: Female Sprague-Dawley rats that are homozygotic carriers of the Y139F mutation in the Vkorc1 gene; assay: Synergy of difethialone and cholecalciferol on warfarin-resistant female Sprague-Dawley Y139F rats; assay type: in vivo, rat; settings: gavage once a day for 3 days; difethialone 0.125 mg/kg alone, cholecalciferol 7.5 mg/kg alone, or both combined; 22 days of observation
Excerpt: Female Sprague-Dawley rats that are homozygotic carriers of the Y139F mutation in the Vkorc1 gene, aged 10 weeks, are acclimatized for 5 days in the presence of a conventional solid feed and water in unlimited amounts. These female Sprague-Dawley Y139F rats are fed by gavage once a day for 3 consecutive days with a gavage solution containing difethialone (LIPHATECH, France) and cholecalciferol (Sigma-Aldrich, France) in a solvent consisting of 95% (v/v) of oil and 5% (v/v) of DMSO. During this period of gavage, the rats are fed with a conventional solid feed and water in unlimited amounts. The amounts of difethialone and cholecalciferol administered are 0.125 mg per kilogram of body weight of the rat fed by gavage and 7.5 mg per kilogram of body weight of the rat fed by gavage, respectively. The rats in two control groups, each consisting of OFA-Sprague-Dawley […] rats, are fed by gavage in the same conditions with gavage solutions containing, respectively, difethialone alone so as to administer an amount of difethialone corresponding to 0.125 mg per kilogram of body weight of the rat fed by gavage and cholecalciferol alone so as to administer an amount of cholecalciferol corresponding to 7.5 mg per kilogram of body weight of the rat fed by gavage. The percentage of rats surviving gavage is noted daily for 21 days counting from the first day of gavage. […]

[8] = tested on: warfarin-sensitive male OFA-Sprague-Dawley rats; assay: Prothrombin level, Quick's time (difethialone gavage); assay type: in vivo, rat; settings: difethialone solution 100 ppm, 1 mL/kg
Method: Nine warfarin-sensitive male OFA-Sprague-Dawley rats (Charles River, L′Arbresles, France) are fed by gavage for 3 consecutive days with difethialone (LIPHATECH, France) in solution in a mixture consisting of 90% (v/v) of oil and 10% (v/v) of DMSO. The concentration of difethialone in the gavage solution is 0.1 g/kg (100 ppm). Each rat receives daily a volume of gavage solution calculated to correspond to 1 mL of gavage solution per kilogram of its body weight […]. 24 hours after the last gavage, a volume of blood is taken from each rat by intracardiac puncture and placed in a specimen tube containing sodium citrate. The animals are euthanized after puncture and the plasma is prepared by centrifugation. […] Quick's time (or clotting time) is evaluated on the plasma supplemented with sodium citrate, then decalcified and recalcified in the presence of calcium thromboplastin. Quick's time is evaluated by means of an optical device for clotting analysis (Option 2plus, Bio Mèrieux®). The average Quick's time measured on the plasma from the rats fed by gavage with difethialone is 23.4 seconds (±6.1). For comparison, the average Quick's time of control rats fed by gavage with the solution without difethialone is 17.5 seconds (±2.1). The difference in values of Quick's time of the rats fed by gavage with the difethialone solution and with the control solution without difethialone is not significant.

[9] = dose 100 μg/kg once a day for 3 days
[10] = dose 500 μg/kg once a day for 3 days

C=C1/C(=C\C=C2/CCC[C@]3(C)[C@@H]([C@H](C)CCCC(C)(C)O)CC[C@@H]23)C[C@@H](O)C[C@@H]1O [Calcitriol, 1,25-dihydroxycholecalciferol]
half-life in the body [1]: ~5 h

O=c1oc2ccccc2c(O)c1C(CC(O)c1ccc(-c2ccc(Br)cc2)cc1)c1ccccc1 (stereo not shown) [bromadiolone, 3-[3-(4′-bromo[1,1′-biphenyl]-4-yl)-3-hydroxy-1-phenylpropyl]-4-hydroxy-2H-1-benzopyran-2-one]
anticoagulant effect (increase of Quick's time relative to the control) ([2]; 3 daily gavages, bromadiolone 100 ppm and/or cholecalciferol 7500 ppm solution, 1 mL/kg): not anticoagulants | average Quick's time (clotting time) ([2]; plasma 24 hours after last of 3 daily gavages, 1 mL/kg of solution with bromadiolone 100 ppm and/or cholecalciferol 7500 ppm): 12.4 s | percentage of rats surviving [3]: 100%

O=c1sc2ccccc2c(O)c1C1CC(c2ccc(-c3ccc(Br)cc3)cc2)Cc2ccccc21 (stereo not shown) [difethialone, 3-(4′bromobiphenyl-4-yl)-1-(4-hydroxythiocoumarin-3-yl)-1,2,3,4-tetrahydronaphthalene]
Mortality, % [4, 9]: 0% | Mortality, % ([4]; dose 125 μg/kg once a day for 3 days): 0% | Mortality, % ([4]; dose 250 μg/kg once a day for 3 days): 100% | Mortality, % [4, 10]: 100% | rats surviving gavage ([4]; gavage for 3 days with 0.125 mg of difethialone per kilogram of body weight per day): 100% | percentage of rats surviving [5]: 100% | Mortality, % ([6]; dose 50 μg/kg once a day for 3 days): 0% | Mortality, % [6, 9]: 0% | Mortality, % ([6]; dose 150 μg/kg once a day for 3 days): 40% | Mortality, % ([6]; dose 200 μg/kg once a day for 3 days): 100% | Mortality, % [6, 10]: 100% | percentage of rats surviving [7]: 100% | anticoagulant effect (increase in Quick's time relative to the control) ([8]; 3 daily gavages): not anticoagulating | haemorrhagic sign ([8]; 3 daily gavages): No haemorrhagic sign | average Quick's time (clotting time) ([8]; plasma 24 hours after last of 3 daily gavages): 23.4 s
